“And” between values parts separate entries of the source, which are not always exact repeats. Equal values may be shown once.
Test system: K-562 leukemia growth, % test/control
Assay: Anticancer human tumor K-562 cell line growth inhibition;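 for viability, T/C: 100% = DMSO vehicle wells and lower values mean fewer viable cells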
Settings: spheroids with HUVEC and MSC; for viability, T/C: stronger effect = lower value
Procedure, shortened: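 Complex spheroids of tumor cells with HUVEC and human MSCs, exposed to iadademstat combined with other agents. Each agent tested in half-log steps from near clinical Cmax (else 10 microM top), DMSO ≤0.25%.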

[1] = curve of first compound, second compound 0.1 µM
[2] = curve of first compound, second compound 0.316 µM
[3] = curve of first compound, second compound 1 µM
[4] = curve of first compound, second compound 3.16 µM
[5] = curve of first compound, second compound 10 µM
[6] = second compound 0.1 µM, first compound 0.00316 µM
[7] = second compound 0.1 µM, first compound 0.01 µM
[8] = second compound 0.1 µM, first compound 0.0316 µM
[9] = second compound 0.1 µM, first compound 0.1 µM
[10] = second compound 0.1 µM, first compound 0.316 µM
[11] = second compound 0.1 µM, first compound 1 µM
[12] = second compound 0.316 µM, first compound 0.00316 µM
[13] = second compound 0.316 µM, first compound 0.01 µM
[14] = second compound 0.316 µM, first compound 0.0316 µM
[15] = second compound 0.316 µM, first compound 0.1 µM
[16] = second compound 0.316 µM, first compound 0.316 µM
[17] = second compound 0.316 µM, first compound 1 µM
[18] = second compound 1 µM, first compound 0.00316 µM
[19] = second compound 1 µM, first compound 0.01 µM
[20] = second compound 1 µM, first compound 0.0316 µM
[21] = second compound 1 µM, first compound 0.1 µM
[22] = second compound 1 µM, first compound 0.316 µM
[23] = second compound 1 µM, first compound 1 µM
[24] = second compound 3.16 µM, first compound 0.00316 µM
[25] = second compound 3.16 µM, first compound 0.01 µM
[26] = second compound 3.16 µM, first compound 0.0316 µM
[27] = second compound 3.16 µM, first compound 0.1 µM
[28] = second compound 3.16 µM, first compound 0.316 µM
[29] = second compound 3.16 µM, first compound 1 µM
[30] = second compound 10 µM, first compound 0.00316 µM
[31] = second compound 10 µM, first compound 0.01 µM
[32] = second compound 10 µM, first compound 0.0316 µM
[33] = second compound 10 µM, first compound 0.1 µM
[34] = second compound 10 µM, first compound 0.316 µM
[35] = second compound 10 µM, first compound 1 µM

Work on `CC1COCCN1c1cc(-c2ccnn2C)c2ccnc(-c3ccn[nH]3)c2n1` (stereo unspecified) + NC1CCC(NC2CC2c2ccccc2)CC1 yielded an IC50 [1] of 11.2 nM, an IC50 [2] of 12.2 nM and an IC50 [3] of 11.4 nM. For the same compound, the IC50 [4] was 10.1 nM, the IC50 [5] was 7.2 nM and the viability, T/C [6] was 90.4%. The viability, T/C [7] was 54.5%, the viability, T/C [8] was 10.2% and the viability, T/C [9] was 3.75%. The viability, T/C [10] was 2.62%, the viability, T/C [11] was 2.45% and the viability, T/C [12] was 91%. It also gave a viability, T/C [13] of 57.9%, a viability, T/C [14] of 12.9% and a viability, T/C [15] of 3.52%. It also gave a viability, T/C [16] of 2.63%, a viability, T/C [17] of 2.48% and a viability, T/C [18] of 92.7%. The viability, T/C [19] was 55.1%, the viability, T/C [20] was 9.5% and the viability, T/C [21] was 3.51%. For the same compound, the viability, T/C [22] was 2.76%, the viability, T/C [23] was 2.82% and the viability, T/C [24] was 92.2%. For the same compound, the viability, T/C [25] was 50.2%, the viability, T/C [26] was 11.5% and the viability, T/C [27] was 3.8%. The viability, T/C [28] was 3.16%, the viability, T/C [29] was 2.7% and the viability, T/C [30] was 83.3%. It also gave a viability, T/C [31] of 36.7%, a viability, T/C [32] of 8.26% and a viability, T/C [33] of 4.09%. For the same compound, the viability, T/C [34] was 2.75% and the viability, T/C [35] was 3.72%.

For `O=C(c1cc(Cc2n[nH]c(=O)c3ccccc23)ccc1F)N1CCN(C(=O)C2CC2)CC1` + NC1CCC(NC2CC2c2ccccc2)CC1, the IC50 [1] was greater than 10000 nM, the IC50 [2] was greater than 10000 nM and the IC50 [3] was greater than 10000 nM. It also gave an IC50 [4] greater than 10000 nM, an IC50 [5] greater than 10000 nM and a viability, T/C [8] of 98.2%. It also gave a viability, T/C [9] of 97.4%, a viability, T/C [10] of 96% and a viability, T/C [11] of 94.2%. It also gave a viability, T/C (second compound 0.1 µM, first compound 3.16 µM) of 82.7%, a viability, T/C (second compound 0.1 µM, first compound 10 µM) of 51.2% and a viability, T/C [14] of 101%. The viability, T/C [15] was 99.6%, the viability, T/C [16] was 98.6% and the viability, T/C [17] was 95%. The viability, T/C (second compound 0.316 µM, first compound 3.16 µM) was 83.2%, the viability, T/C (second compound 0.316 µM, first compound 10 µM) was 51.2% and the viability, T/C [20] was 99.4%. The viability, T/C [21] was 100%, the viability, T/C [22] was 98.3% and the viability, T/C [23] was 94.4%. For the same compound, the viability, T/C (second compound 1 µM, first compound 3.16 µM) was 85.6%, the viability, T/C (second compound 1 µM, first compound 10 µM) was 53.1% and the viability, T/C [26] was 102%. For the same compound, the viability, T/C [27] was 101%, the viability, T/C [28] was 98.2% and the viability, T/C [29] was 95%. It also gave a viability, T/C (second compound 3.16 µM, first compound 3.16 µM) of 84.8%, a viability, T/C (second compound 3.16 µM, first compound 10 µM) of 54.4% and a viability, T/C [32] of 95.4%. It also gave a viability, T/C [33] of 98.8%, a viability, T/C [34] of 98.5% and a viability, T/C [35] of 92.2%. It also gave a viability, T/C (second compound 10 µM, first compound 3.16 µM) of 81% and a viability, T/C (second compound 10 µM, first compound 10 µM) of 53.3%.

With `Nc1ccccc1NC(=O)c1ccc(CNC(=O)OCc2cccnc2)cc1` the viability, T/C (compound 0.00949 µM) was 107% and 112%, the viability, T/C (compound 0.03 µM) was 101% and 110% and the viability, T/C (compound 0.0949 µM) was 103% and 106%. The viability, T/C (compound 0.3 µM) was 74.6% and 11.2%, the viability, T/C (compound 0.949 µM) was 4.47% and 0.45% and the viability, T/C (compound 3 µM) was 0.26% and 0.16%. The IC50 (curve of compound) was 449 nM and 188 nM.

`O=C(C=Cc1cccc(S(=O)(=O)Nc2ccccc2)c1)NO` was tested, and the viability, T/C (compound 0.00949 µM) was 100% and 96%, the viability, T/C (compound 0.03 µM) was 98.5% and 97.4% and the viability, T/C (compound 0.0949 µM) was 101% and 98.3%. The viability, T/C (compound 0.3 µM) was 83.7% and 5.37%, the viability, T/C (compound 0.949 µM) was 2.11% and 0.8% and the IC50 (curve of compound) was 483 nM and 235 nM.

For `CC[C@@]1(O)C(=O)OCc2c1cc1n(c2=O)Cc2cc3c(CN(C)C)c(O)ccc3nc2-1` + NC1CCC(NC2CC2c2ccccc2)CC1, the IC50 [1] was 1.7 nM, the IC50 [2] was 1.73 nM and the IC50 [3] was 1.69 nM. It also gave an IC50 [4] of 1.77 nM, an IC50 [5] of 1.53 nM and a viability, T/C (second compound 0.1 µM, first compound 0.000316 µM) of 98.9%. The viability, T/C (second compound 0.1 µM, first compound 0.001 µM) was 63.2%, the viability, T/C [6] was 34.7% and the viability, T/C [7] was 16.3%. The viability, T/C [8] was 8.26%, the viability, T/C [9] was 4.03% and the viability, T/C (second compound 0.316 µM, first compound 0.000316 µM) was 101%. It also gave a viability, T/C (second compound 0.316 µM, first compound 0.001 µM) of 64.6%, a viability, T/C [12] of 33.9% and a viability, T/C [13] of 15.8%. The viability, T/C [14] was 7.94%, the viability, T/C [15] was 3.55% and the viability, T/C (second compound 1 µM, first compound 0.000316 µM) was 99.5%. For the same compound, the viability, T/C (second compound 1 µM, first compound 0.001 µM) was 64.5%, the viability, T/C [18] was 32.8% and the viability, T/C [19] was 14.4%. For the same compound, the viability, T/C [20] was 6.59%, the viability, T/C [21] was 3.47% and the viability, T/C (second compound 3.16 µM, first compound 0.000316 µM) was 97.6%. For the same compound, the viability, T/C (second compound 3.16 µM, first compound 0.001 µM) was 65.3%, the viability, T/C [24] was 34.5% and the viability, T/C [25] was 15.1%. For the same compound, the viability, T/C [26] was 7.29%, the viability, T/C [27] was 4.79% and the viability, T/C (second compound 10 µM, first compound 0.000316 µM) was 94.3%. For the same compound, the viability, T/C (second compound 10 µM, first compound 0.001 µM) was 62.6%, the viability, T/C [30] was 28.1% and the viability, T/C [31] was 12.8%. It also gave a viability, T/C [32] of 5.5% and a viability, T/C [33] of 2.86%.

For `CC1(C)CCC(CN2CCN(c3ccc(C(=O)NS(=O)(=O)c4ccc(NCC5CCOCC5)c([N+](=O)[O-])c4)c(Oc4cnc5[nH]ccc5c4)c3)CC2)=C(c2ccc(Cl)cc2)C1`, the viability, T/C (compound 0.0316 µM) was 102% and 101%, the viability, T/C (compound 0.1 µM) was 103% and 107% and the viability, T/C (compound 0.316 µM) was 100% and 108%. The viability, T/C (compound 1 µM) was 109% and 117%, the viability, T/C (compound 3.16 µM) was 117% and 75.7% and the IC50 (curve of compound) was 7520 nM and 4730 nM.

In the case of `COc1cc(C2c3cc4c(cc3C(OC3OC5COC(C)OC5C(O)C3O)C3COC(=O)C23)OCO4)cc(OC)c1O` (stereo unspecified), the viability, T/C (compound 0.00949 µM) is reported as 89.7% and 84.4%, the viability, T/C (compound 0.03 µM) is reported as 48.8% and 36.5% and the viability, T/C (compound 0.0949 µM) is reported as 23.6% and 39.6%. The viability, T/C (compound 0.3 µM) was 41% and 42.6%, the viability, T/C (compound 0.949 µM) was 34.9% and 9.87% and the viability, T/C (compound 3 µM) was 8.88% and 1.67%. For the same compound, the IC50 (curve of compound) was 29 nM and 52.1 nM.
